Literature values as cited in patent US20240074994A1, “COMPOSITION OF CHLORHEXIDINE” (priority 2022, published 2024).

How the values were obtained:
HSV-1 [1] = conditions: Vero cell monolayers
HSV-1 [2] = conditions: 0.2% applied topically onto HSV-1 infected forehead skin of mice

Substance: Chlorhexidine
- cytolytic activity of HSV-1 (HSV-1 [1]): moderately, but significantly, inhibited
- replication of HSV-1 (HSV-1 [1]): moderately, but significantly, inhibited
- development of viral lesions (HSV-1 [2]): moderately reduced
- viral titers in the skin and trigeminal ganglia (HSV-1 [2]): moderately reduced
